This is an account of results in patent publication US8394952B2 (Vertex Pharmaceuticals Incorporated, priority 2006, dated 2013).

The target in this assay is Plk1 (Homo sapiens, UniProt P53350). In words: biochemical.
Sequence of Plk1 (P53350 20-338): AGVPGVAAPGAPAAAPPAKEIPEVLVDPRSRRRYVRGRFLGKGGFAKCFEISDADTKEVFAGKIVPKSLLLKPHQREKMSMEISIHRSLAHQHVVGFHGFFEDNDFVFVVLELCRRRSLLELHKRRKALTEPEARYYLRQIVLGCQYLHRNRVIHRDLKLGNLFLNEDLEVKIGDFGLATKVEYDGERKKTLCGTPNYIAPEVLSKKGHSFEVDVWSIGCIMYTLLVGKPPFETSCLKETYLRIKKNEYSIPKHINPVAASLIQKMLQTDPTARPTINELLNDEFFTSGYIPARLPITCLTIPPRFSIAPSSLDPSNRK
Consider `COc1ccc(CNC(=O)c2ccc(Nc3ncc4c(n3)N(C3CCCC3)CC(C)(C)C(=O)N4C)c(OC)c2)cc1` [Compound I-213, 4-(9-cyclopentyl-5,7,7-trimethyl-6-oxo-6,7,8,9-tetrahydro-5H-pyrimido[4,5-b][1,4]diazepin-2-ylamino)-3-methoxy-N-(4-methoxybenzyl)benzamide], for which the Ki is below 10 nM.

For the compound `COc1cc(C(=O)NCc2ccc(S(C)(=O)=O)cc2)ccc1Nc1ncc2c(n1)N(C1CCCC1)CC(C)(C)C(=O)N2C` [Compound I-214, 4-(9-cyclopentyl-5,7,7-trimethyl-6-oxo-6,7,8,9-tetrahydro-5H-pyrimido[4,5-b][1,4]diazepin-2-ylamino)-3-methoxy-N-(4-(methylsulfonyl)benzyl)benzamide], the Ki is below 10 nM.

As to `COc1cc(C(=O)N(C)C)ccc1Nc1ncc2c(n1)N(C1CCCC1)CC(C)(C)C(=O)N2C` [Compound I-215, 4-(9-cyclopentyl-5,7,7-trimethyl-6-oxo-6,7,8,9-tetrahydro-5H-pyrimido[4,5-b][1,4]diazepin-2-ylamino)-3-methoxy-N,N-dimethylbenzamide], the inhibition constant (Ki) was 10 to 100 nM.

In turn, `COc1cc(C(=O)NC[C@@H]2CCCC[C@@H]2O)ccc1Nc1ncc2c(n1)N(C1CCCC1)CC(C)(C)C(=O)N2C` [Compound I-216, 4-(9-cyclopentyl-5,7,7-trimethyl-6-oxo-6,7,8,9-tetrahydro-5H-pyrimido[4,5-b][1,4]diazepin-2-ylamino)-N-(((1S,2S)-2-hydroxycyclohexyl)methyl)-3-methoxybenzamide] came in with a Ki below 10 nM.

Turning to `COC[C@H](C)NC(=O)c1ccc(Nc2ncc3c(n2)N(C2CCCC2)CC(C)(C)C(=O)N3C)c(OC)c1` [Compound I-217, (S)-4-(9-cyclopentyl-5,7,7-trimethyl-6-oxo-6,7,8,9-tetrahydro-5H-pyrimido[4,5-b][1,4]diazepin-2-ylamino)-3-methoxy-N-(1-methoxypropan-2-yl)benzamide], the inhibition constant (Ki) is below 10 nM.

Take `CCCNC(=O)c1ccc(Nc2ncc3c(n2)N(C2CCCC2)CC(C)(C)C(=O)N3C)c(OC)c1` [Compound I-218, 4-(9-cyclopentyl-5,7,7-trimethyl-6-oxo-6,7,8,9-tetrahydro-5H-pyrimido[4,5-b][1,4]diazepin-2-ylamino)-3-methoxy-N-propylbenzamide]: the inhibition constant (Ki) was below 10 nM.

The compound `CCNC(=O)c1ccc(Nc2ncc3c(n2)N(C2CCCC2)CC(C)(C)C(=O)N3C)c(OC)c1` [Compound I-219, 4-(9-cyclopentyl-5,7,7-trimethyl-6-oxo-6,7,8,9-tetrahydro-5H-pyrimido[4,5-b][1,4]diazepin-2-ylamino)-N-ethyl-3-methoxybenzamide] had an inhibition constant Ki below 10 nM.

Regarding `COc1cc(C(=O)N2CC(OC)C2)ccc1Nc1ncc2c(n1)N(C1CCCC1)CC(C)(C)C(=O)N2C` [Compound I-220, 9-cyclopentyl-2-(2-methoxy-4-(3-methoxyazetidine-1-carbonyl)phenylamino)-5,7,7-trimethyl-8,9-dihydro-5H-pyrimido[4,5-b][1,4]diazepin-6(7H)-one], the Ki was below 10 nM.

In turn, `COc1cc(C(=O)Nc2ccccn2)ccc1Nc1ncc2c(n1)N(C1CCCC1)CC(C)(C)C(=O)N2C` [Compound I-221, 4-(9-cyclopentyl-5,7,7-trimethyl-6-oxo-6,7,8,9-tetrahydro-5H-pyrimido[4,5-b][1,4]diazepin-2-ylamino)-3-methoxy-N-(pyridin-2-yl)benzamide] gave a Ki below 10 nM.

Take `COc1cc(C(=O)Nc2ccncn2)ccc1Nc1ncc2c(n1)N(C1CCCC1)CC(C)(C)C(=O)N2C` [Compound I-222, 4-(9-cyclopentyl-5,7,7-trimethyl-6-oxo-6,7,8,9-tetrahydro-5H-pyrimido[4,5-b][1,4]diazepin-2-ylamino)-3-methoxy-N-(pyrimidin-4-yl)benzamide]: the inhibition constant (Ki) is below 10 nM.

With `COc1cc(C(=O)Nc2nccs2)ccc1Nc1ncc2c(n1)N(C1CCCC1)CC(C)(C)C(=O)N2C` [Compound I-223, 4-(9-cyclopentyl-5,7,7-trimethyl-6-oxo-6,7,8,9-tetrahydro-5H-pyrimido[4,5-b][1,4]diazepin-2-ylamino)-3-methoxy-N-(thiazol-2-yl)benzamide], the Ki was below 10 nM.

Consider `COc1cc(C(=O)Nc2cnccn2)ccc1Nc1ncc2c(n1)N(C1CCCC1)CC(C)(C)C(=O)N2C` [Compound I-224, 4-(9-cyclopentyl-5,7,7-trimethyl-6-oxo-6,7,8,9-tetrahydro-5H-pyrimido[4,5-b][1,4]diazepin-2-ylamino)-3-methoxy-N-(pyrazin-2-yl)benzamide], for which the inhibition constant (Ki) is below 10 nM.

For the compound `COc1cc(C(=O)N[C@@H]2C[C@H]2c2ccccc2)ccc1Nc1ncc2c(n1)N(C1CCCC1)CC(C)(C)C(=O)N2C` [Compound I-225, 4-(9-cyclopentyl-5,7,7-trimethyl-6-oxo-6,7,8,9-tetrahydro-5H-pyrimido[4,5-b][1,4]diazepin-2-ylamino)-3-methoxy-N-((1R,2S)-2-phenylcyclopropyl)benzamide], the inhibitory constant (Ki) is below 10 nM.

`COc1cc(C(=O)N[C@H](C)c2ccccc2)ccc1Nc1ncc2c(n1)N(C1CCCC1)CC(C)(C)C(=O)N2C` [Compound I-226, (R)-4-(9-cyclopentyl-5,7,7-trimethyl-6-oxo-6,7,8,9-tetrahydro-5H-pyrimido[4,5-b][1,4]diazepin-2-ylamino)-3-methoxy-N-(1-phenylethyl)benzamide] displayed a Ki below 10 nM.

As to `COc1cc(C(=O)Nc2ccnc(Cl)c2)ccc1Nc1ncc2c(n1)N(C1CCCC1)CC(C)(C)C(=O)N2C` [Compound I-227, N-(2-chloropyridin-4-yl)4-(9-cyclopentyl-5,7,7-trimethyl-6-oxo-6,7,8,9-tetrahydro-5H-pyrimido[4,5-b][1,4]diazepin-2-ylamino)-3-methoxybenzamide], the Ki is below 10 nM.

`COc1cc(C(=O)Nc2cccnc2OC)ccc1Nc1ncc2c(n1)N(C1CCCC1)CC(C)(C)C(=O)N2C` [Compound I-228, 4-(9-cyclopentyl-5,7,7-trimethyl-6-oxo-6,7,8,9-tetrahydro-5H-pyrimido[4,5-b][1,4]diazepin-2-ylamino)-3-methoxy-N-(2-methoxypyridin-3-yl)benzamide] had an inhibition constant Ki below 10 nM.

In turn, `COc1cc(C(=O)NC[C@@H]2CCCC[C@H]2O)ccc1Nc1ncc2c(n1)N(C1CCCC1)CC(C)(C)C(=O)N2C` [Compound I-229, 4-(9-cyclopentyl-5,7,7-trimethyl-6-oxo-6,7,8,9-tetrahydro-5H-pyrimido[4,5-b][1,4]diazepin-2-ylamino)-N-(((1S,2R)-2-hydroxycyclohexyl)methyl)-3-methoxybenzamide] displayed a Ki below 10 nM.

On to `COc1cc(C(=O)NCC2CCCC2)ccc1Nc1ncc2c(n1)N(C1CCCC1)CC(C)(C)C(=O)N2C` [Compound I-230, 4-(9-cyclopentyl-5,7,7-trimethyl-6-oxo-6,7,8,9-tetrahydro-5H-pyrimido[4,5-b][1,4]diazepin-2-ylamino)-N-(cyclopentylmethyl)-3-methoxybenzamide], for which the Ki was below 10 nM.

In the case of `COc1cc(C(=O)Nc2cc(C)[nH]n2)ccc1Nc1ncc2c(n1)N(C1CCCC1)CC(C)(C)C(=O)N2C` [Compound I-231, 4-(9-cyclopentyl-5,7,7-trimethyl-6-oxo-6,7,8,9-tetrahydro-5H-pyrimido[4,5-b][1,4]diazepin-2-ylamino)-3-methoxy-N-(5-methyl-1H-pyrazol-3-yl)benzamide], the inhibition constant (Ki) was below 10 nM.

`COc1cc(C(=O)Nc2cc(C)ns2)ccc1Nc1ncc2c(n1)N(C1CCCC1)CC(C)(C)C(=O)N2C` [Compound I-232, 4-(9-cyclopentyl-5,7,7-trimethyl-6-oxo-6,7,8,9-tetrahydro-5H-pyrimido[4,5-b][1,4]diazepin-2-ylamino)-3-methoxy-N-(3-methylisothiazol-5-yl)benzamide] had an inhibitory constant (Ki) below 10 nM.

Compound `COc1cc(C(=O)NCC#N)ccc1Nc1ncc2c(n1)N(C1CCCC1)CC(C)(C)C(=O)N2C` [Compound I-233, N-(cyanomethyl)-4-(9-cyclopentyl-5,7,7-trimethyl-6-oxo-6,7,8,9-tetrahydro-5H-pyrimido[4,5-b][1,4]diazepin-2-ylamino)-3-methoxybenzamide] yielded a Ki below 10 nM.

The compound `COc1cc(C(=O)Nc2ccncc2C(F)(F)F)ccc1Nc1ncc2c(n1)N(C1CCCC1)CC(C)(C)C(=O)N2C` [Compound I-234] yielded a Ki below 10 nM.

For `COc1cc(C(=O)NCc2cc(C)on2)ccc1Nc1ncc2c(n1)N(C1CCCC1)CC(C)(C)C(=O)N2C` [Compound I-235, 4-(9-cyclopentyl-5,7,7-trimethyl-6-oxo-6,7,8,9-tetrahydro-5H-pyrimido[4,5-b][1,4]diazepin-2-ylamino)-3-methoxy-N-((5-methylisoxazol-3-yl)methyl)benzamide], the Ki is below 10 nM.

With `COc1cc(C(=O)Nc2ncc(C)s2)ccc1Nc1ncc2c(n1)N(C1CCCC1)CC(C)(C)C(=O)N2C` [Compound I-236, 4-(9-cyclopentyl-5,7,7-trimethyl-6-oxo-6,7,8,9-tetrahydro-5H-pyrimido[4,5-b][1,4]diazepin-2-ylamino)-3-methoxy-N-(5-methylthiazol-2-yl)benzamide], the Ki is below 10 nM.

Compound `COc1cc(C(=O)NCCOCCO)ccc1Nc1ncc2c(n1)N(C1CCCC1)CC(C)(C)C(=O)N2C` [Compound I-237, 4-(9-cyclopentyl-5,7,7-trimethyl-6-oxo-6,7,8,9-tetrahydro-5H-pyrimido[4,5-b][1,4]diazepin-2-ylamino)-N-(2-(2-hydroxyethoxy)ethyl)-3-methoxybenzamide] gave a Ki below 10 nM.

`COc1cc(C(=O)NC(C)C)ccc1Nc1ncc2c(n1)N(C1CCCC1)CC(C)(C)C(=O)N2C` [Compound I-238, 4-(9-cyclopentyl-5,7,7-trimethyl-6-oxo-6,7,8,9-tetrahydro-5H-pyrimido[4,5-b][1,4]diazepin-2-ylamino)-N-isopropyl-3-methoxybenzamide] gave a Ki below 10 nM.

Compound `COc1cc(C(=O)N[C@H](CO)C(C)C)ccc1Nc1ncc2c(n1)N(C1CCCC1)CC(C)(C)C(=O)N2C` [Compound I-239, (S)-4-(9-cyclopentyl-5,7,7-trimethyl-6-oxo-6,7,8,9-tetrahydro-5H-pyrimido[4,5-b][1,4]diazepin-2-ylamino)-N-(1-hydroxy-3-methylbutan-2-yl)-3-methoxybenzamide] registered an inhibition constant (Ki) below 10 nM.

What is called Ki is a measure of affinity in units of concentration, obtained from inhibition or displacement. Higher therefore signals a looser hold on the target.
